Laboratory results published in patent US20210290680A1, “METHODS AND COMPOSITIONS FOR MODULATING CELLULAR AGING” (Dorian Therapeutics, Inc., priority 2019, published 2021).

Assays:
Assay type in all cases: cell-based, human
CHLA-55 cells = experiment: CAR-T in vitro cytotoxicity assay, GD2.CAR T cells; conditions: 1:5 E:T, 72 hours, n=3
Description: (§1) Primary T cells were activated as described (Example 3), transduced with a lentivirus encoding for either a CD19.CAR or a GD2.CAR co-expressing shUSP16 #1, shUSP16 #2 or a scrambled shRNA (Control). Cells were cultured in IL-2 and sorted between days 6-13 for EGFRt. At day 16 cytotoxicity assays were performed. Briefly, cells were counted and 100,000 T cells (adjusted for EGFR expression) were plated at 1:5 Effector:Target (E:T) ratio. At 72 hours, the mixture of tumor cells and T cells were collected, stained for CD3-PE, CD8-BV510, CD19- or GD2-APC, EGFR-AF488 and Sytox and counted by flow cytometry (MACSQuant, Miltenyi Biotec) (FIGS. 30A and 30B). Counting beads (CountBright Absolute Counting beads, Invitrogen) were added before acquisition and absolute number was calculated as following (number of cell events/number of bead events)×(assigned bead count of the lot (beads/50 ul)/volume of sample (ul))=concentration of sample as cells/ul). NALM cells were used as target cells for CD19.CAR T cells and CHLA-55 cells were used as target for GD2.CAR T cells. Three different primary T cell cultures were tested for CD19 and GD2 CAR.

primary T cells = experiment: T cell expansion / proliferation by Trypan Blue cell counts; conditions: day 15 post-activation
Description: On Day 0, buffycoats were obtained by a clinical facility, and PBMCs were isolated by density centrifugation using Ficoll™. CD3 enrichment was performed using magnetic beads, PanT cell isolation from Myltenyi Biotec. The T cells were activated with aCD^3/aCD28 Dynabeads (3:1 ratio).
On Day 2, a first round of transduction was performed with lentivirus. On Day 3, a second round of transduction was performed with lentivirus.
On Day 6, the beads were removed. On Day 6-8, Flow cytometry sorting was performed with a FACSAria II (BD).
The cells were cultured in RPMI, 10% FBS, penicillin-streptomycin, and 100IU of IL-2. Cells were plated at a density of 0.3×10^6 cells/ml until day 15, then 0.5×10^6 cells/ml and after day 25 at 1×10^6 cells/ml.
A short hairpin RNA (shRNA) directed against USP16 (shUSP16) was purchased from Dharmacon. […] Between 0.15 and 0.5×10^6 cells were plated post-sorting with a purity higher than 90% and counted every 2-4 days by Trypan Blue exclusion using Vi-CELL XR cell counter (Beckman Coulter). Proliferation was measured as expansion ratio compared to the initial cell seeding. […]
A new set of shRNAs were cloned into the pSIH backbone, where the shRNA expression is driven by the H1 promoter. […] Proliferation was measured as fold increased compared to shControl at day 15 post-activation. […]

CDKN1A = experiment: qPCR of senescence marker CDKN1A; conditions: for CDKN1A expression, fold change vs Control: day 15, n=4; for decrease of senescence marker CDKN1A (Ctrl vs shRNA): primary T cells, day 15
Text: A new set of shRNAs were cloned into the pSIH backbone, where the shRNA expression is driven by the H1 promoter. The vector was also engineered to co-express GFP and Puromycin resistance through a T2A sequence. The new shRNA sequences were: shUSP16 #1 5′-[…]-3′ (SEQ ID NO: 8) and shUSP16 #2 5′-[…]-3′ (SEQ ID NO: 9). Primary T cells were activated as described (Example 3), transduced with a lentivirus encoding either a shUSP16 #1, shUSP16 #2 or a scrambled shRNA (Control) and cells were selected with puromycin at day 6. Between 1 and 1.25×10^6 cells were plated post-puromycin selection with a purity higher than 90% and counted every 2-4 days by Trypan Blue exclusion using Vi-CELL XR cell counter (Beckman Coulter). qPCR was performed to verify downregulation of USP16 expression (FIG. 14A) and the expression of the senescent marker CDKN1A (FIG. 14B) at day 15. Proliferation was measured as fold increased compared to shControl at day 15 post-activation. The experiment was repeated using primary T cells obtained from buffy coats of 3 different healthy donors.
Primary T cells were activated as described (Example 3), transduced with a lentivirus encoding for either a CD19.CAR or a GD2.CAR co-expressing shUSP16 #1, shUSP16 #2 or a scrambled shRNA (Control). Fifteen days post-activation, T cells were collected and qPCR performed. TaqMan probes detecting CDKN1A, CDKN2A (FIGS. 26A and 26B) (fold change GD2.CAR (n=4): CDKN1A Control vs shUSP #1: 0.4360, p<0.0001, and Control vs shUSP16 #2: 3.036, p=0.004 respectively. Fold change CD19.CAR (n=4): CDKN2a, CDKN1A Control vs shUSP #1: 0.6906, p=0.0026; 0.7228, p=0.0297 and Control vs shUSP16 #2: 0.8385, p=0.2325; 0.7017, p=0.0021), TCF7, LEF1, and Axin-2 (FIGS. 27A and B) were analyzed in GD2.CAR and CD19.CAR-expressing cells, respectively. ACTB was used as internal control. (GD2.CAR (n=4) TCF7, LEF1 and Axin-2: Control vs shUSP #1: 1.914 p=0.0512; 1.795 p=0.0323; 3.269 p=0.15 and Control vs shUSP16 #2: 1.284 p=0.0494; 1.718 p=0.0586; 2.035p=0.235, respectively. Fold change CD19.CAR (n=4): TCF7, LEF1 and Axin-2: Control vs shUSP #1: 1.528, p=0.0277; 1.82, p=0.0449; 1.998, p=0.031 and Control vs shUSP16 #2: 1.18, p=0.2002; 1.579, p=0.0632; 1.261, p=0.2382). USP16 downregulation in CAR-T cells results in a decreased expression of senescence markers and an increase in the expression of genes associated with the activation/increased signaling of the WNT pathway, indicating its importance in delaying cellular senescence and increasing self-renewal.

NALM cells = experiment: CAR-T in vitro cytotoxicity assay, CD19.CAR T cells; conditions: 1:5 E:T, 72 hours, n=3
Description: as §1

| Substance | CHLA-55 residual cells (CHLA-55 cells) | T cell number (CHLA-55 cells) | proliferation, fold increased compared to shControl (primary T cells) | CDKN1A expression, fold change vs Control (CDKN1A; CD19.CAR) | CDKN1A expression, fold change vs Control (CDKN1A; GD2.CAR) | decrease of senescence marker CDKN1A (Ctrl vs shRNA) (CDKN1A) [%] | T cell number (NALM cells) | residual tumor cells (NALM) (NALM cells) |
| --- | --- | --- | --- | --- | --- | --- | --- | --- |
| shUSP16 #1: shRNA targeting USP16, 5′-GACTGTAAGACTGACAATAAA-3′ (SEQ ID NO: 8), pSIH backbone or co-expressed in CAR plasmid | 159531 | 79566 | about 1.31 folds | 0.7228 | 0.4360 | 23 | 46674 | 29688 |
| shUSP16 #2: shRNA targeting USP16, 5′-TATATCAGTTCACCCGTAAT-3′ (SEQ ID NO: 9), pSIH backbone or co-expressed in CAR plasmid | 129186 | 194025 | ~2.33 folds | 0.7017 | 3.036 | 37 | 58732 | 28462 |
